Experimental data taken from patent US9862748B2, “Peptide compounds and methods of production and use thereof” (priority 2012, dated 2018).
Where two headings read alike, the source gives them in different places. Square brackets hold non-standard residues; d marks the D form. Ends that are not written are not given here. Peptide text beside a SMILES is read from it. AEEA = NCCOCCOCC(=O)O

Columns and labels:
swine skin wounds [1] = assay: Swine full thickness excisional dermal wound model, wound area; type: in vivo; conditions: for Mean Wound Healing (%) Day 0 / Mean Wound Healing (%) Day 3 / Mean Wound Healing (%) Day 5 / Mean Wound Healing (%) Day 7 / Mean Wound Healing (%) Day 10 / Mean Wound Healing (%) Day 14: 3 mg/ml, 0.20 ml per wound, reapplied daily; for dermal wound healing: topical 3 mg/ml over 14 days, vs saline
Experimental: In this Example, peptide compounds of the presently disclosed and claimed inventive concept(s) were evaluated as to their activity on the dermal wound healing process in a clinically relevant swine full thickness excisional wound model. Three different peptide formulations (Group B, Peptide 95-122 (SEQ ID NO: 26); Group C, Peptide 120-146WH (SEQ ID NO: 31); and Group D, Peptide 120-146QH-5RMP (SEQ ID NO: 33)) were each evaluated at the same concentration (3 mg/ml). Sterile saline served as the control (Group A).
(§1) Full thickness excisional wounds were induced on the dorsum of swine (N=3) using a 1.0 cm biopsy punch. Treatments were administered (0.20 ml) to each wound (N=6 wounds per group), and the wounds were dressed with standard occlusive dressing ([…]™, 3M Corporation, St. Paul, Minn.). Treatments were reapplied daily and dressings changed. Clinical wound healing observations and wound area (2 mm) measurements were performed on days 0, 3, 5, 7, 10, and 14 post-wounding. Wound area (2 mm) data were expressed as percentage (%) of wound healing. Animals were terminated on day 14 with wounds harvested and processed for histological evaluation. […] All peptide formulation treatment groups healed faster with greater rate of closure and re-epithelialization over time, as compared to the saline control (Group A).

swine skin wounds [2] = assay: Swine dermal wound model, histological evaluation; type: in vivo; conditions: day 14 post-wounding; for Histopathology Results, Mean Angiogenesis / Histopathology Results, Mean Epithelization / Histopathology Results, Mean Granulation / Histopathology Results, Mean Inflammation: 3 mg/ml
Experimental: The characteristics that were measured are required to indicate features of a well-healed wound. Inflammation should be low and re-epithelialization high.
as §1
The histology correlated with the clinical observations. […] There were minimal differences in the amount or character of granulation tissue, inflammation, and angiogenesis. All the wounds were well filled and vascularized.

[3] = tested on: Pseudomonas aeruginosa ATCC® 27853™; type: cell-based; set-up: Effects of Peptide Compounds on Pseudomonas aeruginosa ATCC ® 27853 ™: unit not given here; conditions: for Effects of Peptide Compounds on Pseudomonas aeruginosa ATCC ® 27853 ™: Table 6; for effectiveness against Pseudomonas aeruginosa compared with gentamicin, pH 7.2: peptide at 25 VIM (so in the source); for activity against P. aeruginosa: 120-146WR at 25 μM
Experimental: (§2) In vitro bactericidal activity: The three peptide compounds BCC01-5RMP (SEQ ID NO: 21), BCC02-5RMP (SEQ ID NO: 22), and BCC03-5RMP (SEQ ID NO: 23) were assayed for in vitro bactericidal activity against Pseudomonas aeruginosa, Escherichia coli, Salmonella typhimurium, and Acinetobacter baumannii. The starting inoculum for all experiments was 1×10^6 colony forming units (CFU)/ml. The CFU remaining at the end of 60 to 180 minute incubation was determined, and the data plotted as a log reduction in CFU/ml.
(§3) For FIGS. 10-13, in vitro bactericidal assays were performed using a starting inoculum of 1×10^6 CFU/ml of the bacterial suspension. The CFU remaining at the end of the 60-180 minute incubation was determined, and the data was plotted as log reduction in CFU/ml.
(§4) In particular, each of the test peptides (CAP37 peptides 120-146WR, 120-146WH, and 95-122 (SEQ ID NOs: 30, 31, and 26, respectively)) was used at 25, 12.5, 6.25, and 3.12 μM. Gentamicin was used at 4 μg/ml. 1×10^6/ml Acinetobacter baumannii ATCC® BAA-747™ or Pseudomonas aeruginosa ATCC® 27853™ (American Type Culture Collection, Manassas, Va.) were incubated with the peptides, negative buffer control (tryptone saline), and positive control gentamicin at pH 5.5 or 7.2. A 60 minute incubation was used for Acinetobacter baumannii ATCC® BAA-747™, while a 180 minute incubation was used for Pseudomonas aeruginosa ATCC® 27853™. 50 μl aliquots were plated out on agar plates and incubated overnight. Colony forming units were counted after overnight incubation and CFU/ml calculated.
For FIG. 14, 1×10^6/ml Pseudomonas aeruginosa ATCC® 27853™ were incubated with each of the test peptides (CAP37 peptides 120-146WR, 120-146WH, 120-146QR, 120-146QH, 120-146QR-5RMP, and 120-146QH-5RMP (SEQ ID NOs: 30, 31, 28, 29, 32, and 33, respectively)) at 150, 75, and 37.5 μg/ml, or negative buffer control (tryptone saline), for 180 minutes at pH 5.5. 50 μl aliquots were plated out on agar plates and incubated overnight. Colony forming units were counted after overnight incubation and CFU/ml calculated.

[4] = tested on: E. coli ATCC® strain 25922™; type: cell-based, Escherichia coli; set-up: unit not given here; conditions: Table 6
Experimental: as §2

[5] = tested on: Pseudomonas clinical isolate B64; assay: BIOSCREEN C growth assay / MIC, antibiotic in combination with peptide; type: cell-based, P. aeruginosa; conditions: for MIC, antibiotic alone: clinical isolate of P. aeruginosa, 1×10^5 CFU/well, 24 hours
Experimental: The peptide and antibiotics were set up in the wells of the microtiter plate at starting ratios of MIC equivalents of antibiotic:peptide at 3:1, 1:1, and 1:3. They were serially diluted to concentrations well below suboptimal/sublethal levels of the antibiotic and peptide. The organism was added (1×10^5 CFU/well), the BIOSCREEN C™ assay (Growth Systems USA, Piscataway, N.J.) was performed, and data was collected over 24 hours.

[6] = tested on: Acinetobacter baumannii ATCC® BAA-747™; type: cell-based
Experimental: as §2, §3, §4

[7] = tested on: mouse cornea (corneal epithelial abrasion); assay: In vivo model of corneal wound healing; conditions: treated at 0 and 16 hours; 95-122 10^−5 M; 120-146WH 10^−8 M or 10^−6 M; HB-EGF 250 ng/ml
Experimental: The in vivo model of wound healing was carried out using a disposable biopsy punch (2 mm, Miltex, York, Pa.) to demarcate the mouse cornea and a 0.5 mm burr using the AlgerBrush II (The Alger Company, Inc., Lago Vista, Tex.) to remove the corneal epithelium.
Mice were anesthetized using ketamine (100 mg/kg; Bionichepharma, LLC., St. Lake Forrest, Ill.) and xylazine ([…]; Rompun; Bayer Corp., Shawnee Mission, Kans.), and the right cornea was wounded as follows. A disposable biopsy punch (2 mm, Miltex, York, Pa.) was used to demarcate the mouse cornea. The corneal epithelium was carefully removed within the 2 mm demarcated area with a 0.5 mm burr using the AlgerBrush II (The Alger Company, Inc., Lago Vista, Tex.). The corneal abrasions were treated at 0 and 16 hours with HB-EGF (250 ng/ml), rCAP37 (250 ng/ml), or vehicle control (0.9% sodium chloride, pH 5.5, Baxter, Deerfield, Ill.). Corneal abrasions were visualized using sterile fluorescein sodium ophthalmic strips USP (FLUORETS®, Chauvin Laboratory, Aubenas, France) dampened with sterile PBS. Images were taken at 0, 16, 24, and 48 hours immediately following fluorescein staining using a surgical microscope equipped with a camera (Carl Zeiss OPMI VISU 140, Carl Zeiss Surgical, Inc., Oberkochen, Germany). The areas of the open wound were quantitated using ImageJ software (US National Institutes of Health), and the results were reported as the percentage of wound closure.
Whole mouse eyes were collected for histology at 0, 6, 16, 24, and 48 hours post wounding and were immediately placed in Prefer fixative (Anatech LTD., Battle Creek, Mich.) for 20 minutes before being transferred to 70% ethanol. Tissues were paraffin-embedded and cut at a thickness of 5 μm, mounted on SUPERFROSTPLUS® slides (Statlab Medical Products, Lewisville, Tex.), and subsequently deparaffinized, rehydrated, and washed in deionized water. Sections were stained with hematoxylin (Leica Microsystems, Buffalo Grove, Ill.) and rinsed twice in deionized water before being washed in Blue Buffer (Leica Microsystems). The sections were finally washed in deionized water and 95% ethanol prior to being counterstained with eosin (Leica Microsystems). Sections were dehydrated in ethanol and cleared in xylene.

Compound: CC(C)C[C@H](NC(=O)[C@H](CCCNC(=N)N)NC(=O)CNC(=O)CNC(=O)[C@H](CO)NC(=O)[C@H](Cc1c[nH]cn1)NC(=O)[C@H](CCC(N)=O)NC(=O)[C@H](CO)NC(=O)CNC(=O)[C@H](Cc1c[nH]c2ccccc12)NC(=O)CNC(=O)[C@H](C)NC(=O)[C@@H](NC(=O)[C@H](CCC(N)=O)NC(=O)[C@H](CS)NC(=O)[C@H](CCCNC(=N)N)NC(=O)[C@@H](NC(=O)CNC(=O)[C@H](CCCNC(=N)N)NC(=O)[C@H](CCCNC(=N)N)NC(=O)[C@H](CCCNC(=N)N)NC(=O)[C@H](CCCNC(=N)N)NC(=O)COCCOCCNC(=O)COCCOCCN)[C@@H](C)O)C(C)C)C(=O)N[C@@H](CO)C(=O)N[C@@H](CCCNC(=N)N)C(=O)N[C@@H](Cc1ccccc1)C(=O)N1CCC[C@H]1C(=O)N[C@@H](CCCNC(=N)N)C(=O)N[C@@H](Cc1ccccc1)C(=O)N[C@H](C(=O)N[C@@H](CC(N)=O)C(=O)N[C@H](C(=O)N[C@@H](CCCNC(=N)N)C(=O)O)C(C)C)C(C)C [120-146QH-5RMP] (H-[AEEA][AEEA]RRRRGTRCQVAGWGSQHSGGRLSRFPRFVNVR-OH; N-terminus and C-terminus assumed)
- Mean Wound Healing (%) Day 0 (swine skin wounds [1]): 0.0%
- Mean Wound Healing (%) Day 3 (swine skin wounds [1]): 22.5%
- Mean Wound Healing (%) Day 5 (swine skin wounds [1]): 34.1%
- Mean Wound Healing (%) Day 7 (swine skin wounds [1]): 64.1%
- Mean Wound Healing (%) Day 10 (swine skin wounds [1]): 93.7%
- Mean Wound Healing (%) Day 14 (swine skin wounds [1]): 98.0%
- dermal wound healing (swine skin wounds [1]): accelerate dermal wound healing
- epidermal resurfacing and maturation of the epidermis versus saline control (swine skin wounds [2]): greater extent of epidermal resurfacing and maturation of the epidermis
- Histopathology Results, Mean Angiogenesis (swine skin wounds [2]): 1.3
- Histopathology Results, Mean Epithelization (swine skin wounds [2]): 4.0
- Histopathology Results, Mean Granulation (swine skin wounds [2]): 4.0
- Histopathology Results, Mean Inflammation (swine skin wounds [2]): 0.5

Compound: CC[C@H](C)[C@H](NC(=O)[C@H](CC(C)C)NC(=O)[C@H](C)NC(=O)CNC(=O)CNC(=O)[C@H](CS)NC(=O)[C@H](Cc1ccccc1)NC(=O)[C@H](Cc1c[nH]cn1)NC(=O)[C@H](CCCNC(=N)N)NC(=O)CNC(=O)[C@H](CCC(N)=O)NC(=O)[C@H](CC(N)=O)NC(=O)COCCOCCNC(=O)COCCOCCN)C(=O)N[C@@H](Cc1c[nH]cn1)C(=O)N[C@@H](C)C(=O)N[C@@H](CCCNC(=N)N)C(=O)N[C@@H](Cc1ccccc1)C(=O)N[C@H](C(=O)N[C@@H](CCSC)C(=O)N[C@H](C(=O)N[C@@H](C)C(=O)N[C@@H](C)C(=O)N[C@@H](CO)C(=O)N[C@@H](CO)C(=O)N[C@@H](Cc1ccccc1)C(=O)N[C@@H](CCC(N)=O)C(=O)O)[C@@H](C)O)C(C)C [BCC03-MP] (H-[AEEA][AEEA]NQGRHFCGGALIHARFVMTAASSFQ-OH; N-terminus and C-terminus assumed)
- Effects of Peptide Compounds on Pseudomonas aeruginosa ATCC ® 27853 ™ ([3]; Peptide Conc 12.5 μg/ml): −45.6
- Effects of Peptide Compounds on Pseudomonas aeruginosa ATCC ® 27853 ™ ([3]; Peptide Conc 50 μg/ml): −2.9
- Effects of Peptide Compounds on Pseudomonas aeruginosa ATCC ® 27853 ™ ([3]; Peptide Conc 100 μg/ml): 44.0
- Effects of Peptide Compounds on Escherichia coli ATCC ® 25922 ™ ([4]; Peptide Conc 6.25 μg/ml): 6.4
- Effects of Peptide Compounds on Escherichia coli ATCC ® 25922 ™ ([4]; Peptide Conc 200 μg/ml): 46.0

Compound: CO/N=C(\C(=O)N[C@@H]1C(=O)N2C(C(=O)O)=C(COC(C)=O)CS[C@H]12)c1csc(N)n1 [Cefotaxime, reference compound]
- bactericidal impact of antibiotic alone at sublethal concentration ([5]; 2.8 μg/ml of Cefotaxime): very little bactericidal impact
- MIC, antibiotic alone [5]: 15 µg/mL

Compound: C[C@H]1COc2c(N3CCN(C)CC3)c(F)cc3c(=O)c(C(=O)O)cn1c23 [Levofloxacin, reference compound]
- MIC, antibiotic alone [5]: 15 µg/mL

Compound: GTRCQVAGWGSWHSGGRLSRFPRFVNV [Peptide 120-146WH]
- effectiveness against Pseudomonas aeruginosa compared with gentamicin, pH 7.2 ([3]; gentamicin 4 μg/ml): as effective as the standard antibiotic gentamicin
- Mean Wound Healing (%) Day 0 (swine skin wounds [1]): 0.0%
- Mean Wound Healing (%) Day 3 (swine skin wounds [1]): 22.1%
- Mean Wound Healing (%) Day 5 (swine skin wounds [1]): 35.9%
- Mean Wound Healing (%) Day 7 (swine skin wounds [1]): 59.7%
- Mean Wound Healing (%) Day 10 (swine skin wounds [1]): 93.5%
- Mean Wound Healing (%) Day 14 (swine skin wounds [1]): 97.5%
- dermal wound healing (swine skin wounds [1]): accelerate dermal wound healing
- epidermal resurfacing and maturation of the epidermis versus saline control (swine skin wounds [2]): greater extent of epidermal resurfacing and maturation of the epidermis
- Histopathology Results, Mean Angiogenesis (swine skin wounds [2]): 1.7
- Histopathology Results, Mean Epithelization (swine skin wounds [2]): 3.7
- Histopathology Results, Mean Granulation (swine skin wounds [2]): 4.0
- Histopathology Results, Mean Inflammation (swine skin wounds [2]): 0.5
- activity against A. baumannii at 25 μM [6]: highly active
- corneal wound healing versus vehicle [7]: significantly greater

Compound: GTRCQVAGWGSWRSGGRLSRFPRFVNV [Peptide 120-146WR]
- activity against P. aeruginosa ([3]; gentamicin 4 μg/ml): highly active
- effectiveness against Pseudomonas aeruginosa compared with gentamicin, pH 7.2 ([3]; gentamicin 4 μg/ml): as effective as the standard antibiotic gentamicin
- activity against A. baumannii at 12.5 μM ([6]; 12.5 μM): highly active
- activity against A. baumannii at 25 μM [6]: highly active

Compound: gentamicin [reference compound]
- activity against P. aeruginosa ([3]; gentamicin 4 μg/ml): highly active
- log reduction of CFU/ml, Pseudomonas aeruginosa, pH 5.5 ([3]; gentamicin 4 μg/ml, 180 minutes, FIG. 13): 2 log
- activity against Acinetobacter baumannii at pH 5.5 ([6]; gentamicin 4 μg/ml, 60 minutes): unable to kill the bacteria
- activity against Acinetobacter baumannii at pH 7.2 ([6]; gentamicin 4 μg/ml, 60 minutes): active against the bacteria
